Experimental data published in patent US12404252B2, “Salt of 2-amino-2-(2-(1-decyl-1H-1,2,3-triazol-4-yl)ethyl)propane-1,3-diol, and pharmaceutical composition containing same” (NEXTGEN BIOSCIENCE CO., LTD, priority 2021, dated 2025).
In brackets after ≈: the same amount, converted by molar mass. Several values for one entry are separate records, joined by “and”; a condition that tells them apart may be missing. Equal entries are not always repeated.

Tests used:
[1] = system: T cells, CD4 T cells, and CD8 T cells; experiment: Inhibitory effect against rat immune cells (FACS after oral administration); format: in vivo; conditions: SD rats
Protocol: In order to evaluate the effect of Compound 1a on rat immune cells, Compound 1a was administered orally to SD rats at 10 mg/kg/day, and then lymphocytes in peripheral blood (PB) and bone marrow (BM) were classified into T cells, CD4 T cells, and CD8 T cells. FACS analysis was performed 0, 4, 8, 12, 24, 36, and 48 hours after administration of the test substance. Cell number was measured and expressed as a percentage relative to that at time 0 (% of control). The numbers of T cells, CD4 T cells, and CD8 T cells were measured and expressed as percentages relative to those at time 0 (% of control).

[2] = Hygroscopicity test by DVS; format: physicochemical
From the text: Dynamic vapor sorption (DVS) is a method that has been used for a long time to investigate the interactions between active pharmaceutical ingredients (APIs), and pharmaceutical preparations and water. Here, to analyze the water absorption rate of a sample at a specific temperature, measurements are made by exposing the sample to the desired relative humidity using a DVS water sorption analyzer (hygroscopicity analyzer) until the change in weight of the sample stabilizes.

Photostability test = format: physicochemical
Protocol: For a photostability test, 10 mg of Compound 1a was exposed to 1.2 million lux hours of ultraviolet and visible light at room temperature. For an oxidation stability test, 0.2 mL of 30% H2O2 and 1 mg of Compound 1a were placed in a 2-mL vial and stored at 25° C. for up to 24 hours. The photostability and oxidation stability conditions used to evaluate the fumarate salt of Compound 1 and the evaluation results are as follows.

[3] = system: T cells, CD4 T cells, and CD8 T cells; experiment: Inhibitory effect against mouse immune cells (FACS after oral administration); format: in vivo; conditions: mice, oral 3 mg/kg
Protocol: In order to examine whether Compound 1, which acts on the S1P receptor, also is effective in reducing lymphocytes, the effect of Compound 1 on immune cells was evaluated. After oral administration of Compound 1 to mice at 3 mg/kg/day, changes in lymphocytes in peripheral blood (PB) and bone marrow (BM) were classified into T cells, CD4 T cells, and CD8 T cells. FACS analysis was performed 0, 4, 8, 12, 24, and 36 hours after administration of the test substance. Cell number was measured and expressed as a percentage relative to that at time 0 (% of control).

[4] = Solubility in aqueous media (HPLC); format: physicochemical; conditions: for solubility at 24 h: thermodynamic from solid
Protocol: The solubility of Compound 1a prepared in Example 1 was evaluated in several different media, including pH 1.2 hydrochloric acid buffer, pH 3.0 citrate buffer, pH 4.7 acetate buffer, pH 6.8 phosphate buffer, simulated gastric fluid, fasted-state simulated intestinal fluid, fed-state simulated intestinal fluid, and water. About 2.17 mg of sample (based on the free base of Compound 1) for each medium was taken into a 2-mL transparent glass vial and […] of medium was added (constituents of the salt were considered Compound 1: counterion=1:0.5; target concentration: 2 mg/mL). The mixture was stirred using a magnetic stirrer at 250 RPM for 24 hours at 25° C. Next, the pH and appearance of the mixture were recorded and the mixture was filtered through a MultiScreen® HTS-HV 96-well plate (manufactured by Merck; 0.45-μm hydrophilic, low-protein-binding Durapore® membrane). Solubility was determined using HPLC, and a calibration curve was created by injecting a known concentration of Compound 1a. The filtered sample was injected (diluted appropriately as necessary) and the concentration of Compound 1a (mg/mL) in the filtrate was calculated from the calibration curve (taking salt coefficient into account). The analysis results are as follows.

With `CCCCCCCCCCn1cc(CCC(N)(CO)CO)nn1` [Compound 1a, 2-amino-2-(2-(1-decyl-1H-1,2,3-triazol-4-yl)ethyl) propane-1,3-diol] the “change of cell number in bone marrow (BM)” value [1] was “no change or a tendency to increase”, the “inhibitory effect on number of T cells in peripheral blood (PB)” value ([1]; dose-dependent, doses of the three values not given) was 70% and 80% and 87% and the “hygroscopicity (DVS evaluation, in words)” value ([2]; 90% RH, listed as Example 1) was “very low hygroscopicity”. The “DVS remark (adsorption at 90% RH)” value ([2]; water adsorption at 90% RH, DVS) was “less than 2%”, the Purity % (Photostability test; Photostability 1.2 million lux hours exposed) was 99.52% and the Purity % (Photostability test; Photostability 1.2 million lux hours unexposed) was 99.70%. The “CD4 T cells in peripheral blood, relative to time 0 (% of control)” value ([3]; 4 hours) was 16.4% and 17.6%, the “CD8 T cells in peripheral blood, relative to time 0 (% of control)” value ([3]; 4 hours) was 5.9% and 9.3% and the “T cells in peripheral blood, relative to time 0 (% of control)” value ([3]; 4 hours) was 40.6% and 41.6%. For the same molecule, the “T-cell distribution in bone marrow (BM), % of control” value ([3]; 4 hours) was 135% and 120%, the “T-cell distribution in bone marrow (BM), % of control” value ([3]; 24 hours) was 131% and 118% and the Visual observation ([4]; 0.5% Methylcellulose, target 2 mg/mL) was “Clear solution”. The solubility at 24 h ([4]; 25 °C, all of the aqueous media except phosphate buffer (pH 6.8)) was greater than 2000 µg/mL, the Visual observation ([4]; FaSSIF (pH 6.5), target 2 mg/mL) was “Clear solution” and the Visual observation ([4]; FeSSIF (pH 5.8), target 2 mg/mL) was “Clear solution”. The Visual observation ([4]; SGF (pH 2.0), target 2 mg/mL) was “Clear solution”, the Visual observation ([4]; Water, target 2 mg/mL) was “Clear solution” and the solubility at 24 h ([4]; aqueous buffer, pH 3.0 Citrate buffer, 25° C., 24 hours, final pH 3.42) was greater than 2000 µg/mL. It also gave a solubility at 24 h ([4]; aqueous buffer, pH 4.7 Acetate buffer, 25° C., 24 hours, final pH 5.11) greater than 2000 µg/mL, a solubility at 24 h ([4]; aqueous buffer, pH 6.8 Phosphate buffer, 25° C., 24 hours, final pH 6.94) of 306 µg/mL (≈ 0.937 mM) and a solubility at 24 h ([4]; aqueous with cosolvent or surfactant or cyclodextrin, 0.5% Methylcellulose, 25° C., 24 hours, final pH 6.04) greater than 2000 µg/mL. The Visual observation ([4]; pH 1.2 HCl buffer, target 2 mg/mL) was “Clear solution”, the Visual observation ([4]; pH 3.0 Citrate buffer, target 2 mg/mL) was “Clear solution” and the Visual observation ([4]; pH 4.7 Acetate buffer, target 2 mg/mL) was “Clear solution”. The Visual observation ([4]; pH 6.8 Phosphate buffer, target 2 mg/mL) was “White suspension”, the solubility at 24 h ([4]; simulated gastric fluid, SGF (pH 2.0), 25° C., 24 hours, final pH 3.02) was greater than 2000 µg/mL and the solubility at 24 h ([4]; simulated gastric fluid, pH 1.2 HCl buffer, 25° C., 24 hours, target 2 mg/mL, final pH 1.75) was greater than 2000 µg/mL. For the same molecule, the solubility at 24 h ([4]; FaSSIF (pH 6.5), 25° C., 24 hours, final pH 6.60) was greater than 2000 µg/mL, the solubility at 24 h ([4]; FeSSIF (pH 5.8), 25° C., 24 hours, final pH 5.97) was greater than 2000 µg/mL and the solubility at 24 h ([4]; Water, 25° C., 24 hours, final pH 6.04) was greater than 2000 µg/mL.
